Structures can show the parent of a compound that is named as a salt.
Experiments:
[1] = Raw material stability test versus tegoprazan freebase (60 °C or 90 % RH); type: physicochemical; settings: for change in appearance, 60 °C / change in appearance, 90 % RH: 3 weeks; for amount of total related substances generated (FIG. 13): stress temperature/humidity storage, compared to tegoprazan freebase
[2] = Solid-state accelerated stability test (40 ± 2 °C/RH 75 ± 5 %); settings: for Change (%) Degradant: 1 month vs initial; for Initial (%) Total Related substances / Initial (%) Degradant: Table 7, initial; for Initial (%) Degradant: degradant of Formula 4
[3] = Stability test by formulation (tablets and orally disintegrating tablets, 60 °C or 90 % RH); type: physicochemical; settings: tablets and orally disintegrating tablets prepared with the named salt, versus reference drug; for amount of total related substances generated (FIGS. 18 and 19): 60 °C or 90 % RH, 1 or 3 weeks; for degree of weight gain (FIG. 17): 90 % RH, 3 weeks
Description: The amount of total related substances under stress storage conditions (temperature/humidity) was measured using liquid chromatography (HPLC) using an Infinity 1260 (Agilent) equipment. The analysis conditions are as follows.
To minimize the influence of additives, each test formulation was selected with the same additives as the reference drug (K-CAB tablets 50 mg, K-CAB orally disintegrating tablets 50 mg) disclosed in the Ministry of Food and Drug Safety Pharmaceutical Integrated Information System, and to minimize differences due to the granule manufacturing process, the formulation was prepared using the simple mixing (direct compression) method. Each formulation was as shown in Tables 16 and 17 below, and the stability conditions were conducted for each formulation under the storage conditions of 60 °C, which is a stress temperature condition, and 90 % RH, which is a stress humidity condition, respectively.
Stability tests were conducted under stress storage conditions (temperature/humidity) for each formulation. The results of measuring the amount of total related substances after storage under stress conditions for 1 week or 3 weeks are shown in FIG. 18 and FIG. 19.

[4] = Solid-state stress stability test (temperature 60 °C); settings: for After 1 Month (%) Degradant / After 1 Month (%) Total Related substances / change in appearance, change in the color of the solid / Remarks: 1 month; for Change (%) Degradant: 1 month vs initial; for Remarks: appearance; for Initial (%) Degradant / Initial (%) Total Related substances: Table 8, initial
Description: (§1) Operation and Calculation: The blank solution, standard solution, and test solution were sequentially tested under the instrument operating conditions according to the liquid chromatography method in the General Test Methods of the 12th Edition of the Korean Pharmacopoeia, and the amount of related substances was calculated using the following equation. Amount of each related; substance (%) = (AT)/(AS) × (CS)/(CT) × (Molecular weight; of the sample)/(Molecular weight; of the standard; product) × P × (1)/(RR; F) [formula] AT = Area of each related substance peak obtained from the test solution AS = Area of the tegoprazan peak obtained from the standard solution CS = Concentration of standard solution (mg/mL) CT = Concentration of test solution (mg/mL) P = Purity/Assay/Potency (%) of standard product RRF = Relative response factor (1.0)
(§2) A solid-state stability comparative test was conducted on each of the above-mentioned prepared tegoprazan acid addition salts. The stability comparative test was conducted for 1 month under the conditions shown in Table 6 below in accordance with The International Council for Harmonisation of Technical Requirements for Pharmaceuticals for Human Use (ICH) guideline, and the purity of the acid addition salt, total related substances, and the content of degradants were measured by HPLC at the initial time point and after 1 month. Total related substances and degradants were measured according to the related substance test method (HPLC).
2) Stress Stability Test (temperature 60 °C)

[5] = Photostability test, ultraviolet light (200 W·hr/m2) exposure; settings: for After Ultraviolet Light Exposure (200 W hr/m2)(%) Degradant / After Ultraviolet Light Exposure (200 W hr/m2)(%) Total Related substances: Table 10, UV 200 W·hr/m2, PE bag; for Change (%) Degradant: Table 10, after UV exposure vs initial; for Initial (%) Degradant / Initial (%) Total Related substances: Table 10, initial
Description: (§3) A photostability comparative test was conducted on each of the above-mentioned prepared tegoprazan acid addition salts. The test was conducted by exposing the sample to light with an energy of 200 W hr/m^2 of ultraviolet light and 1.2 Mlux hr of visible light in accordance with The International Council for Harmonisation of Technical Requirements for Pharmaceuticals for Human Use (ICH) guideline, with the samples packaged in a single PE bag and spread thinly enough to ensure exposure to the light source, taking humidity stability into consideration. The purity of the acid addition salts and the change in the amount of degradants at the initial time point and after exposure to ultraviolet light or visible light were measured by HPLC.

[6] = Liquid stability comparative test (20 mg/mL in purified water, 40 °C, 24 hours, HPLC); type: physicochemical; settings: for After 24 hours Purity (%) / Initial Purity (%) / After 24 hours Degradant (%) / Initial Degradant (%): 20 mg/mL in purified water; for Initial Purity (%) / Initial Degradant (%): initial time point; for After 24 hours Degradant (%) / Initial Degradant (%): degradant of Formula 4; for Amount of Change Degradant (%): initial vs after 24 hours at 40 °C
Description: The analysis conditions are as follows.
Each sample was dissolved in purified water to prepare a solution with a concentration of 20 mg/mL, stored at an external temperature of 40 °C, and analyzed by HPLC at the initial time point and after 24 hours to measure purity, and the change in the generated degradant (Formula 4) was measured. The analysis of total related substances and degradants was performed by taking a liquid from a solution prepared at a concentration of 20 mg/mL, diluting it to a concentration of 4 mg/mL with the diluent of the related substance test method (HPLC), and measuring it as a test solution, and analyzing it according to the related substance test method (HPLC).

[7] = Photostability test, visible light (1.2 Mlux·hr) exposure; settings: for Change (%) Degradant: Table 11, after exposure vs initial; for After (%) Degradant / After (%) Total Related substances: Table 11 under heading Visible Light (1.2 Mlux-hr) Exposure Test
Description: as §3

[8] = Solid-state stress stability test (humidity 90 % RH); settings: for Remarks: state of the solid; for Initial (%) Degradant / Initial (%) Total Related substances: Table 9, initial
Description: as §1, §2
3) Stress Stability (humidity 90 % RH)

[9] = 40 ± 2 °C / RH 75 ± 5 %, 1 month
[10] = liquid stability, 40 °C, 24 hours

Cc1nc2c(O[C@H]3CCOc4cc(F)cc(F)c43)cc(C(=O)N(C)C)cc2[nH]1 [Methanesulfonate Salt (Crystalline Form)]
change in appearance, 60 °C [1]: No change in appearance | change in appearance, 90 % RH [1]: Dissolved to transparency | change in appearance, Initial [1]: No change in appearance | amount of total related substances generated (FIG. 13) [1]: significantly increased | After 1 Month (%) Degradant [2, 9]: 0.518% | After 1 Month (%) Total Related substances [2, 9]: 0.727% | Change (%) Degradant ([2]; 40 ± 2 °C / RH 75 ± 5 %): 0.396% | Initial (%) Total Related substances [2]: 0.265% | Initial (%) Degradant [2]: 0.122% | Change in Quality (%) Accelerated (4 weeks) Degradant ([2]; Table 12 summary): 0.396% | Change in Quality (%) Accelerated (4 weeks) Purity ([2]; Table 12 summary): -0.462% | increase in total related substances after 1 month ([2]; accelerated stability): ≥ 0.3% | amount of total related substances generated (FIGS. 18 and 19) [3]: significantly increased | degree of weight gain (FIG. 17) [3]: greater | total related substances increased after 1 month ([4]; 60 °C): ≥ 5.0% | After 1 Month (%) Degradant ([4]; 60 °C): 4.167% | After 1 Month (%) Total Related substances ([4]; 60 °C): 5.408% | change in appearance, change in the color of the solid ([4]; 60 °C): change in appearance | Change (%) Degradant ([4]; 60 °C): 4.045% | Remarks ([4]; 60 °C): Discolorat ion | Initial (%) Degradant [4]: 0.122% | Initial (%) Total Related substances [4]: 0.265% | Change in Quality (%) 60 °C (4 weeks) Degradant ([4]; Table 12 summary): 4.045% | Change in Quality (%) 60 °C (4 weeks) Purity ([4]; Table 12 summary): -5.143% | 60 °C (4 weeks) appearance remark ([4]; Table 12 summary, remark in brackets under the 60 °C columns): (Discoloration) | After Ultraviolet Light Exposure (200 W hr/m2)(%) Degradant [5]: 0.168% | After Ultraviolet Light Exposure (200 W hr/m2)(%) Total Related substances [5]: 0.339% | Change (%) Degradant [5]: 0.046% | Initial (%) Degradant [5]: 0.122% | Initial (%) Total Related substances [5]: 0.265% | Change in Quality (%) Light (Ultraviolet) Degradant ([5]; Table 12 summary): 0.046% | Change in Quality (%) Light (Ultraviolet) Purity ([5]; Table 12 summary): 0.074% | After 24 hours Purity (%) ([6]; 40 °C, 24 hours): 99.47% | Initial Purity (%) [6]: 99.95% | After 24 hours Degradant (%) ([6]; 40 °C, 24 hours): 0.446% | Initial Degradant (%) [6]: 0.028% | Amount of Change Degradant (%) [6]: 0.42% | increase in degradants (degradant of Formula 4) [6, 10]: ≤ 0.5% | Change (%) Degradant [7]: 0.086% | Initial (%) Degradant ([7]; Table 11, initial): 0.122% | Initial (%) Total Related substances ([7]; Table 11, initial): 0.265% | After (%) Degradant [7]: 0.208% | After (%) Total Related substances [7]: 0.412% | Change in Quality (%) Light (Visible) Degradant ([7]; Table 12 summary): 0.086% | absorb moisture and deliquesce / melted ([8]; 90 % RH): absorb moisture and deliquesce | Remarks ([8]; 90 % RH, 1 month): Melted | Initial (%) Degradant [8]: 0.122% | Initial (%) Total Related substances [8]: 0.265% | Change in Quality (%) 90 % RH (4 weeks) Degradant ([8]; Table 12 summary): Melted | Change in Quality (%) 90 % RH (4 weeks) Purity ([8]; Table 12 summary): Melted

Cc1nc2c(O[C@H]3CCOc4cc(F)cc(F)c43)cc(C(=O)N(C)C)cc2[nH]1 [Sulfate Salt]
change in appearance, 60 °C [1]: Pungent odor | change in appearance, 90 % RH [1]: Pungent odor | change in appearance, Initial [1]: Pungent odor | amount of total related substances generated (FIG. 13) [1]: significantly increased | After 1 Month (%) Degradant [2, 9]: 0.712% | After 1 Month (%) Total Related substances [2, 9]: 1.197% | Change (%) Degradant ([2]; 40 ± 2 °C / RH 75 ± 5 %): 0.373% | Remarks ([2]; 40 ± 2 °C / RH 75 ± 5 %, 1 month, appearance): Discolorat ion | Initial (%) Total Related substances [2]: 0.609% | Initial (%) Degradant [2]: 0.339% | increase in total related substances after 1 month ([2]; accelerated stability): ≥ 0.3% | change in appearance of the solid ([2]; accelerated stability, 1 month): discoloration | amount of total related substances generated (FIGS. 18 and 19) [3]: significantly increased | degree of weight gain (FIG. 17) [3]: greater | After 1 Month (%) Degradant ([4]; 60 °C): 2.345% | After 1 Month (%) Total Related substances ([4]; 60 °C): 3.441% | change in appearance, change in the color of the solid ([4]; 60 °C): change in appearance | Change (%) Degradant ([4]; 60 °C): 2.006% | Remarks ([4]; 60 °C): Discolorat ion | Initial (%) Degradant [4]: 0.339% | Initial (%) Total Related substances [4]: 0.609% | After Ultraviolet Light Exposure (200 W hr/m2)(%) Degradant [5]: 1.415% | After Ultraviolet Light Exposure (200 W hr/m2)(%) Total Related substances [5]: 1.748% | Change (%) Degradant [5]: 1.076% | Initial (%) Degradant [5]: 0.339% | Initial (%) Total Related substances [5]: 0.609% | After 24 hours Purity (%) ([6]; 40 °C, 24 hours): 93.95% | Initial Purity (%) [6]: 99.89% | After 24 hours Degradant (%) ([6]; 40 °C, 24 hours): 5.414% | Initial Degradant (%) [6]: 0.080% | Amount of Change Degradant (%) [6]: 5.33% | degradants formed after 24 hours of storage [6, 10]: ≥ 5% | purity decreased [6, 10]: about 6% | Change (%) Degradant [7]: 1.934% | Initial (%) Degradant ([7]; Table 11, initial): 0.339% | Initial (%) Purity ([7]; Table 11, initial): 99.3% | Initial (%) Total Related substances ([7]; Table 11, initial): 0.609% | After (%) Degradant [7]: 2.273% | After (%) Total Related substances [7]: 2.754% | After 1 Month (%) Degradant ([8]; 90 % RH, 1 month): 14.500% | After 1 Month (%) Total Related substances ([8]; 90 % RH, 1 month): 16.637% | Change (%) Degradant ([8]; 90 % RH, 1 month vs initial): 14.161% | Remarks ([8]; 90 % RH, 1 month): Polymorp hic Transition | polymorphic transition (PXRD) ([8]; 90 % RH, after 1 month): polymorphic transition occurred | Initial (%) Degradant [8]: 0.339% | Initial (%) Total Related substances [8]: 0.609%
